Experimental data as given in ChEMBL document CHEMBL4325915, “Synthesis of zwitterionic N-chlorohydantoins for antibacterial applications” (2018).

What was measured:
Format in all cases: functional
[1] = test system: Escherichia coli; assay: Bactericidal activity against Escherichia coli ATCC 25922 assessed as reduction in bacterial colonies preincubated for 5 mins followed by bacterial plating on Luria-Bertani plates and measured after 18 to 24 hrs relative to control; parameters: concentration or dose not given beside the values
[2] = test system: Escherichia coli; assay: Bactericidal activity against Escherichia coli ATCC 25922 assessed as log reduction in bacterial colonies preincubated for 10 mins followed by bacterial plating on Luria-Bertani plates and measured after 18 to 24 hrs relative to control
[3] = test system: Staphylococcus aureus; assay: Bactericidal activity against Staphylococcus aureus ATCC 25923 assessed as log reduction in bacterial colonies preincubated for 5 mins followed by bacterial plating on Luria-Bertani plates and measured after 18 to 24 hrs relative to control
[4] = test system: Escherichia coli; assay: Bactericidal activity against Escherichia coli ATCC 25922 assessed as reduction in bacterial colonies preincubated for 10 mins followed by bacterial plating on Luria-Bertani plates and measured after 18 to 24 hrs relative to control; parameters: concentration or dose not given beside the values
[5] = test system: Staphylococcus aureus; assay: Bactericidal activity against Staphylococcus aureus ATCC 25923 assessed as reduction in bacterial colonies preincubated for 5 mins followed by bacterial plating on Luria-Bertani plates and measured after 18 to 24 hrs relative to control; parameters: concentration or dose not given beside the values
[6] = test system: Staphylococcus aureus; assay: Bactericidal activity against Staphylococcus aureus ATCC 25923 assessed as log reduction in bacterial colonies preincubated for 10 mins followed by bacterial plating on Luria-Bertani plates and measured after 18 to 24 hrs relative to control
[7] = test system: Staphylococcus aureus; assay: Bactericidal activity against Staphylococcus aureus ATCC 25923 assessed as reduction in bacterial colonies preincubated for 10 mins followed by bacterial plating on Luria-Bertani plates and measured after 18 to 24 hrs relative to control; parameters: concentration or dose not given beside the values
[8] = test system: Escherichia coli; assay: Bactericidal activity against Escherichia coli ATCC 25922 assessed as log reduction in bacterial colonies preincubated for 5 mins followed by bacterial plating on Luria-Bertani plates and measured after 18 to 24 hrs relative to control
[9] = test system: Staphylococcus aureus; assay: Bactericidal activity against Staphylococcus aureus ATCC 25923 assessed as reduction in bacterial colonies using initial inoculum of 4 x 10^7 CFU/ml preincubated for 5 mins followed by bacterial plating on Luria-Bertani plates and measured after 18 to 24 hrs relative to control; parameters: scale not given: the % may be the effect or the level left

CC1(C)C(=O)N(CCC[N+](C)(C)C)C(=O)N1Cl.[Cl-]
Activity [1]: 42.2%
log(activity) [2]: 2.18
log(activity) [3]: 0.05
Activity [4]: 99.3%
Activity [5]: 11.8%
log(activity) [6]: 0.6
Activity [7]: 75%
log(activity) [8]: 0.24

CC1(C)C(=O)N(CCC[N+](C)(C)CC(=O)[O-])C(=O)N1Cl
Activity [1]: 86.7%
log(activity) [2]: 6.63
Activity [9]: 15%
log(activity) [3]: 0.18
Activity [4]: 100%
Activity [5]: 34.3%
log(activity) [6]: 6.83
Activity [7]: 100%
log(activity) [8]: 0.88

CC1(C)NC(=O)N(CCO)C1=O
Activity [1]: 0%
log(activity) [2]: 0
log(activity) [3]: 0
Activity [4]: 0%
Activity [5]: 0%
log(activity) [6]: 0
Activity [7]: 0%
log(activity) [8]: 0

CC1(C)NC(=O)N(CCC[N+](C)(C)CC(=O)[O-])C1=O
Activity [1]: 0%
log(activity) [2]: 0
log(activity) [3]: 0
Activity [4]: 0%
Activity [5]: 0%
log(activity) [6]: 0
Activity [7]: 0%
log(activity) [8]: 0

CC1(C)C(=O)N(CCO)C(=O)N1Cl
Activity [1]: 100%
log(activity) [2]: 6.63
Activity [9]: 99.8%
log(activity) [3]: 6.83
Activity [4]: 100%
Activity [5]: 100%
log(activity) [6]: 6.83
Activity [7]: 100%
log(activity) [8]: 6.63

CC1(C)C(=O)N(CCC[N+](C)(C)CCCS(=O)(=O)[O-])C(=O)N1Cl
Activity [1]: 25.1%
log(activity) [2]: 1
log(activity) [3]: 0.1
Activity [4]: 89.9%
Activity [5]: 19.8%
log(activity) [6]: 0.29
Activity [7]: 49.1%
log(activity) [8]: 0.13

CC1(C)NC(=O)N(CCC[N+](C)(C)CCCS(=O)(=O)[O-])C1=O
Activity [1]: 0%
log(activity) [2]: 0
log(activity) [3]: 0
Activity [4]: 0%
Activity [5]: 0%
log(activity) [6]: 0
Activity [7]: 0%
log(activity) [8]: 0

CC1(C)NC(=O)N(CCC[N+](C)(C)C)C1=O.[Cl-]
Activity [1]: 0%
log(activity) [2]: 0
log(activity) [3]: 0
Activity [4]: 0%
Activity [5]: 0%
log(activity) [6]: 0
Activity [7]: 0%
log(activity) [8]: 0
